Experimental data reported in patent US8519139B2, “Indazolamides with analgesic activity” (Aziende Chimeche Riunite Angelini Francesco A.C.R.A.F. …, priority 2003, dated 2013).

Assays:
[1] = tested on: Mechanical hyperalgesia in rats with streptozotocin-induced diabetes (diabetic neuropathy); experiment: Mechanical hyperalgesia in rats with streptozotocin-induced diabetes; type: in vivo, rat; conditions: male CD rats, dose 10^-5 mol/kg, 2 h after treatment, vehicle 114 ± 2.7, normal animals 240±8.7 g
Description: 2. Mechanical Hyperalgesia in Rats with Streptozotocin-induced Diabetes
Male CD rats weighing 240-300 g on arrival were used.
The diabetic syndrome was induced by means of a single intraperitoneal (i.p.) injection of 80 mg/kg of streptozotocin dissolved in sterile physiological solution [Courteix C, Eschalier A, Lavarenne J. Streptozotocin-induced diabetic rats: behavioural evidence for a model of chronic pain. Pain, 1993; 53: 81-88; Bannon A W, Decker M W, Kim D J, Campbell J E, Arneric S P. ABT-594, a novel cholinergic channel modulator, is efficacious in nerve ligation and diabetic neuropathy models of neuropathic pain. Brain Res. 1998; 801:158-63].
At least three weeks after the injection of streptozotocin, rats with a level of glycemia≧300 mg/dl and with a response threshold to a mechanical nociceptive stimulus ≦120 g were selected. The glycemia levels were measured by means of a reflectometer, using reactive strips impregnated with glucose oxidase. The pain threshold was measured using an analgesimeter. By applying a gradual increase in pressure onto the dorsal area of the left hind paw of the rat, the instrument makes it possible to record the nocifensive response, expressed in grams, corresponding to the moment at which the animal retracts the paw.
Two hours after the treatment, the pain threshold measured in control animals was compared with that measured in animals treated with the test product (dose: 10^−5 mol/kg).
The control animals were treated with the same vehicle (water) used for administering the test products.

[2] = tested on: CFA-induced mechanical hyperalgesia in rats; experiment: CFA-induced mechanical hyperalgesia in rats; type: in vivo, rat; conditions: male CD rats, dose 10^-5 mol/kg, test 23 hours after injecting the CFA, 1 h after treatment; vehicle 120 ± 6.1, normal animals 155±2.1 g
Description: 1. CFA-induced Mechanical Hyperalgesia in Rats
Male CD rats weighing 150-200 g on arrival were used.
By means of an analgesimeter, rats with a response threshold to a mechanical nociceptive stimulus in the range from 150 to 180 g were selected. By applying a gradual increase in pressure onto the dorsal region of the left hind paw of the rat, the instrument makes it possible to record the nocifensive response, expressed in grams, corresponding to the moment at which the animal retracts the paw [Randall L O and Selitto J J. A method for the measurement of analgesic activity on inflamed tissue. Arch. Int. Pharmacodyn. Ther. 1957; 111: 409-419].
The hyperalgesia was induced by unilateral injection of 150 μl of “Complete Freund's Adjuvant” (CFA) into the surface of the left hind paw of the animal [Andrew D, Greenspan J D. Mechanical and heat sensitization of cutaneous nociceptors after peripheral inflammation in the rat. J Neurophysiol. 1999; 82(5): 2649-2656; Hargreaves K, Dubner R, Brown R, Flores C, Joris J. A new and sensitive method for measuring thermal nociception in cutaneous hyperalgesia. Pain 1988; 32: 77-88].
The test compounds were tested (dose: 10^−5 mol/kg) by performing the test 23 hours after injecting the CFA.
One hour after the treatment, the pain threshold measured in control animals was compared with that measured in animals treated with the test product. The control animals were treated with the same vehicle (water) used for administering the test products.

SMILES: CC(C)n1nc(C(=O)NCC2CCN(CC(=O)Nc3ccccc3)CC2)c2ccccc21.Cl [AF3R172, N3-((1-(2-oxo-2-(phenylamino)ethyl)-4-piperidyl)methyl)-1-(1-methylethyl)-1H-indazole-3-carboxamide hydrochloride]
- Pain threshold (g) 2 h after the treatment [1]: 186 ± 13.0 g
- Pain threshold (g) 1 h after the treatment [2]: 175 ± 10.2 g

SMILES: Cc1ccc(S(=O)(=O)O)cc1.O=C(CN1CCC(CNC(=O)c2n[nH]c3ccccc23)CC1)Nc1ccccc1 [AF3R276, N3-((1-(2-oxo-2-(phenylamino)ethyl)-4-piperidyl)methyl)-1H-indazole-3-carboxamide tosylate]
- Pain threshold (g) 2 h after the treatment [1]: 210 ± 10.9 g
- Pain threshold (g) 1 h after the treatment [2]: 185 ± 15.9 g

SMILES: Cl.O=C(CN1CCC(CNC(=O)c2nn(Cc3ccccc3)c3ccccc23)CC1)Nc1ccccc1 [AF3R277, N3-((1-(2-oxo-2-(phenylamino)ethyl)-4-piperidyl)methyl)-1-benzyl-1H-indazole-3-carboxamide hydrochloride]
- Pain threshold (g) 2 h after the treatment [1]: 188 ± 11.0 g
- Pain threshold (g) 1 h after the treatment [2]: 170 ± 10.7 g

SMILES: CC(C)n1nc(C(=O)NCC2CCN(CC(=O)Nc3ccc(O)cc3)CC2)c2ccccc21.Cl [AF3R278, N3-((1-(2-((4-hydroxyphenyl)amino)-2-oxoethyl)-4-piperidyl)methyl)-1-(1-methylethyl)-1H-indazole-3-arboxamide hydrochloride]
- Pain threshold (g) 2 h after the treatment [1]: 240 ± 16.5 g
- Pain threshold (g) 1 h after the treatment [2]: 164 ± 10.2 g

SMILES: CC(C)n1nc(C(=O)NCC2CCN(CC(=O)Nc3ccc(N)cc3)CC2)c2ccccc21.Cl.Cl [AF3R292, N3-((1-(2-oxo-2-((4-aminophenyl)amino)ethyl)-4-piperidyl)methyl)-1-(1-methylethyl)-1H-indazole-3-carboxamide dihydrochloride]
- Pain threshold (g) 2 h after the treatment [1]: 202 ± 8.7 g
- Pain threshold (g) 1 h after the treatment [2]: 154 ± 11.5 g

SMILES: Cc1ccc2[nH]nc(C(=O)NCC3CCN(CC(=O)Nc4ccccc4)CC3)c2c1.Cl [AF3R295, 5-methyl-N-3-((1-(2-oxo-2-(phenylamino)ethyl)-4-piperidyl)methyl)-1H-indazole-3-carboxamide hydrochloride]
- Pain threshold (g) 2 h after the treatment [1]: 212 ± 14.6 g
- Pain threshold (g) 1 h after the treatment [2]: 202 ± 17.0 g

SMILES: Cc1ccc2c(c1)c(C(=O)NCC1CCN(CC(=O)Nc3ccccc3)CC1)nn2C(C)C.Cl [AF3R299, 5-methyl-N-3-((1-(2-oxo-2-(phenylamino)ethyl)-4-piperidyl)methy 1)-1-(1-methylethyl)-1H-indazole-3-carboxamide hydrochloride]
- Pain threshold (g) 2 h after the treatment [1]: 200 ± 10.7 g
- Pain threshold (g) 1 h after the treatment [2]: 167 ± 8.5 g

SMILES: CC(C)n1nc(C(=O)NCC2CCN(CC(=O)Nc3ccc(N(C)C)cc3)CC2)c2ccccc21.Cl.Cl [AF3R301, N3-((1-(2-oxo-2-((4-(dimethylamino)phenyl)amino)ethyl)-4-piperidyl)methyl)-1-(1-methylethyl)-1H-indazole-3-carboxamide dihydrochloride]
- Pain threshold (g) 2 h after the treatment [1]: 201 ± 13.8 g
- Pain threshold (g) 1 h after the treatment [2]: 151 ± 10.7 g

SMILES: Cc1cccc(C)c1NC(=O)CN1CCC(CNC(=O)c2nn(C(C)C)c3ccccc23)CC1.O=C(O)C(=O)O [AF3R305, N3-((1-(2-oxo-2-((2,6-dimethylphenyl)amino)ethyl)-4-piperidyl)methyl)-1-(1-methylethyl)-1H-indazole-3-carboxamide oxalate]
- Pain threshold (g) 2 h after the treatment [1]: 189 ± 9.2 g
- Pain threshold (g) 1 h after the treatment [2]: 174 ± 8.4 g

SMILES: CC(C)n1nc(C(=O)NCC2CCN(CC(=O)Nc3ccc(OCc4ccccc4)cc3)CC2)c2ccccc21 [AF3R331, N3-((1-(2-oxo-2-((4-((phenylmethyl)oxy)phenyl)amino)ethyl)-4-piperidyl)methyl)-1-(1-methylethyl)-1H-indazole-3-carboxamide]
- Pain threshold (g) 2 h after the treatment [1]: 192 ± 11.5 g
- Pain threshold (g) 1 h after the treatment [2]: 156 ± 8.7 g

SMILES: CC(C)n1nc(C(=O)NCC2CCN(CC(=O)Nc3ccc([N+](=O)[O-])cc3)CC2)c2ccccc21 [AF3R335, N3-((1-(2-oxo-2-((4-nitrophenyl)amino)ethyl)-4-piperidyl)methyl)-1-(1-methylethyl)-1H-indazole-3-carboxamide]
- Pain threshold (g) 2 h after the treatment [1]: 180 ± 13.0 g
- Pain threshold (g) 1 h after the treatment [2]: 168 ± 6.8 g
